{"source": "patent US20080153822A1", "about": "“Methods of treating pain” (priority 2006, published 2008)", "key": {"[1]": {"tested_on": "CDKs", "details": "Current Opinion in Pharmacology, 2003(3): 362-370; cited from earlier work"}, "[2]": {"tested_on": "TNFα", "test": "LPS in vivo assay (model of cytokine repression in vivo)", "design": "species or system mice", "details": "30 mg/kg single p.o. dose 30 min prior to LPS; blood serum 90 min after LPS; ELISA; FIG. 3", "method": "For the LPS induced model of septic shock, mice receive an intraperitoneal (i.p.) injection of 30 μg bacterial Lipopolysaccharide (LPS; L2630 SIGMA) in saline. Said LPS-mediated initiation of the inflammatory signalling cascade results in increasing blood serum concentrations of cytokines such as e.g. TNFα, IL-6 and IL1β. Blood can be taken from these animals at defined time points. Thereafter, serum will be separated and the samples can be stored at −80° C. until cytokine concentrations are measured using commercial ELISA assays. (A L Moreira et al., Braz J Med Biol Res 1997; 30:1199-1207).\nWildtype mice (strain C3HeB/FeJ) (age, sex and weight matched) were injected with 30 μg LPS (SIGMA) intraperitoneally. 90 minutes after LPS administration, these animals were anaesthetized with 0.1 ml/10 g bodyweight Ketamine-Rompun (50/20 mg/ml) and blood for serum preparation was taken via cardiac puncture.\nPharmacological treatment groups (n=4) of LPS mice received per os (p.o.) injections of CDK-inhibiting compounds or the vehicle (negative control), respectively. […]\nSerum concentrations of TNF alpha and IL6 within the samples were measured by using commercial ELISA Kits (Natutec) according to the manufacturers instructions. […]"}, "[3]": {"tested_on": "LPS induced THP-1 macrophages", "test": "In vitro THP-1 assay (LPS-induced cytokine expression)", "assay_type": "cell-based, human", "method": "The human THP-1 cell line can be utilized as an in vitro model of cytokine expression as mediated by Lipopolysaccharide (LPS) or Tumor Necrosis Factorα [TNFα].\nMonocytic THP-1 cells (ATCC; TIB-202) can be differentiated into macrophage-like cells expressing pro-inflammatory cytokines like TNFα, IL6 and IL10 upon induction with LPS or by TNFα (autocrine induction) itself.\nTHP-1 cells are grown in modified RPMI-1640 medium (ATCC, Cat. No. 30-2001) supplemented with 10% FCS and 1% Pen/Strep. For cytokine inhibition assays, cells are seeded at a density of 5×10^5 cells/ml into 6-well plates in standard growth medium supplemented with 100 ng/ml PMA (Sigma, P1585) to induce differentiation into macrophage-like cells. After 24 hours, the medium is replaced with standard growth medium (without PMA) and the cells are incubated for another 48 hours to complete differentiation.\nAfter 72 h of differentiation, the medium is replaced with serum free growth medium, and CDK-inhibiting compounds as well as reference compounds such as positive and negative controls, each dissolved in DMSO are added at concentrations ranging from 0.5 to 5 μM (final concentration of DMSO in the well is 0.1%). Cells are incubated for 60 min with compounds prior to stimulation with 100 ng/ml LPS (Sigma, L2630) for another 4-48 hours. Supernatants are collected and assayed immediately for cytokine expression, e.g. for TNFα, IL-6 and IL-1β using commercially available sandwich ELISA assays (eBioscience, Cat. No 88-7346, 88-7066, 88-7010) or kept frozen at […] until evaluation.\nConcentrations of TNFα, IL6 and IL1β within the cell culture supernatants are measured by using commercial ELISA Kits (eBioscience) according to the manufacturer's instructions.\nCompound #133 was administered to differentiated THP-1 cells in triplicates as described above (see section 2.). After 60 min of pre-incubation with test or reference compound (a p38 inhibitor and an IKK-inhibitor, respectively) alone, cells were stimulated with LPS. […]"}, "[4]": {"tested_on": "TNF α", "test": "In vitro human whole blood assay (cytokine inhibition)", "assay_type": "cell-based", "details": "for TNF α levels reduced: human whole blood", "method": "[…]. For this purpose, human heparinised whole blood from healthy donors was diluted 1:5 with medium (RPMI 1640, e.g. ATCC #30-2001, supplemented with 4.5 g/L glucose, 4 mM L-glutamine, pyruvate, 1250 U sodium-heparin and 1% Penicillin/Streptomycin), incubated with the anti-inflammatory compound or solvent for 30-60 minutes and then stimulated with 20 ng/ml to 1 μg/ml LPS or SEB for 3 to 48 hours. Supernatants were harvested and analysed for cytokine content, e.g. by ELISA."}, "[5]": {"biological_target": "T1, CDK9/CycT (Homo sapiens, UniProt P50750)", "T1 construct": "host or cells: Sf9 insect cells, baculovirus", "T1 sequence (P50750 whole entry)": "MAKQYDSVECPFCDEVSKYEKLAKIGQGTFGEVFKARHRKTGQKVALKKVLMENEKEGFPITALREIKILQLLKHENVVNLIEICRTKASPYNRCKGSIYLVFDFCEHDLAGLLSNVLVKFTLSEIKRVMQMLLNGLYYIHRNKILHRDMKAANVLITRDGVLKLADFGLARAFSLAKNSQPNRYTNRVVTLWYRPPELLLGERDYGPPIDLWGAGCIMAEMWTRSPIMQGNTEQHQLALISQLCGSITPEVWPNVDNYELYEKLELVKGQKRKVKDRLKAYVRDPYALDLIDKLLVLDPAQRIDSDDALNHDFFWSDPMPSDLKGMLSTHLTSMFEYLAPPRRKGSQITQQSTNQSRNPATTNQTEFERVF", "T1 sequence (O60563 whole entry partner)": "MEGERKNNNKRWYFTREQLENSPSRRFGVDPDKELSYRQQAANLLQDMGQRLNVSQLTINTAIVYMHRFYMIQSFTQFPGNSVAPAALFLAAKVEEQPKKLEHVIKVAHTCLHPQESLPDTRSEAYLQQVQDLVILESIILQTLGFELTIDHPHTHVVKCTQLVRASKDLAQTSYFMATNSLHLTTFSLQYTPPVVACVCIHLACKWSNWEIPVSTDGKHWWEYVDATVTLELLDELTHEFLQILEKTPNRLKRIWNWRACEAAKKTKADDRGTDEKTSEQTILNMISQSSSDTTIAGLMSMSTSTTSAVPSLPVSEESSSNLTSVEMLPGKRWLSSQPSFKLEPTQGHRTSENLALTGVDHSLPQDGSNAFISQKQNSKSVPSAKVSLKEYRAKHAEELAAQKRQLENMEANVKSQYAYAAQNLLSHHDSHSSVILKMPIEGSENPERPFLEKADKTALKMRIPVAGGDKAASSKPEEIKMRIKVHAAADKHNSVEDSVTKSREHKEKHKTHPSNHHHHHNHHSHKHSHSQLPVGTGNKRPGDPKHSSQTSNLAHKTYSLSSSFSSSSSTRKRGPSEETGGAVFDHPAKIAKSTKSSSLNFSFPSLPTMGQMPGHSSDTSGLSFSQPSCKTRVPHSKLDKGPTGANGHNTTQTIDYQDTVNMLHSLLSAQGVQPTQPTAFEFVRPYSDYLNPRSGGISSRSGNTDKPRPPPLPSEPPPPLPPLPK", "test": "In vitro kinase inhibition assay", "assay_type": "biochemical", "details": "1 μM ATP, 33P FlashPlate assay", "method": "IC50 profiles of the compounds according to general Formula I or Ia of the present invention can be determined for cyclin-dependent kinases CDK2/CycA, CDK4/CycD1, CDK6/CycD1 and CDK9/CycT in enzymatic kinase inhibition assays in vitro. IC50 values as obtained in these assays are used for evaluating the specific selectivity and potency of the compounds with respect to CDK9 inhibition.\nCompounds are used as 1×10^−2 M stock solutions in 100% DMSO, 100 μl each in column 2 of three 96-well V-shaped microtiterplates (in the following, said plates are referred to as “master plates”). […]\nFor the determination of inhibitory profiles, the following 4 protein kinases are used: CDK2/CycA, CDK4/CycD1, CDK6/CycD1 and CDK9/CycT. […] The purity of each kinase is determined by SDS-PAGE/silver staining and the identity of each kinase is verified by western blot analysis with kinase specific antibodies or by mass spectroscopy. […]\nReaction mixtures are incubated at 30° C. for 80 minutes. […] Incorporation of ^33P is determined with a microplate scintillation counter (Microbeta, Wallac).\nThe median value of the counts in column 1 (n=8) of each assay plate is defined as “low control”. This value reflects unspecific binding of radioactivity to the plate in the absence of a protein kinase but in the presence of the substrate. […]"}}}
{"compound": "purvanolols", "values": [{"measurement": "inhibitory activity against CDKs 4 and 6", "setting": "[1]", "value": "no inhibitory activity"}, {"measurement": "selectivity for a specific CDK", "setting": "[1]", "value": "greater selectivity for CDKs 1, 2 and 5"}]}
{"compound": "COc1ccccc1-c1ccnc(Nc2cccc(S(C)(=O)=O)c2)n1", "note": "[Compound #133]", "values": [{"measurement": "reduction of LPS-induced TNFα level (signalα signal) compared to the DMSO vehicle control", "setting": "[2]", "value": 50, "unit": "%"}, {"measurement": "signalα signal compared to the DMSO (vehicle control)", "setting": "[3]; at each concentration, FIG. 4", "value": "significantly reduced"}, {"measurement": "effect on TNFα and IL6 protein concentration in the cell supernatant versus vehicle (DMSO)", "setting": "[3]; differentiated THP-1 cells, 60 min pre-incubation, LPS 4-48 h", "value": "significant inhibitory effect"}, {"measurement": "reduction of LPS-induced cytokine levels (TNFα, IL6, IL1β)", "setting": "[3]; differentiated THP-1 cells, LPS 100 ng/ml, supernatant ELISA, FIG. 4", "value": "up to 100%"}, {"measurement": "TNF α levels reduced", "setting": "[4]; 0.3 μM", "value": 15, "unit": "%"}, {"measurement": "TNF α levels reduced", "setting": "[4]; 3 μM", "value": 60, "unit": "%"}, {"measurement": "TNF α levels reduced", "setting": "[4]; 10 μM", "value": 85, "unit": "%"}, {"measurement": "TNF α levels reduced", "setting": "[4]; 30 μM", "value": 94, "unit": "%"}, {"measurement": "IC50", "setting": "[4]; Homo sapiens, deduced from the % reduction data", "value": "< 3", "unit": "µM"}, {"measurement": "IC50", "setting": "[5]", "value": 0.0376, "unit": "µM"}]}
{"compound": "CCn1cnc2c(Nc3cccc(Cl)c3)nc(N[C@@H]3CCCC[C@@H]3N)nc21", "note": "[CGP74514A]", "values": [{"measurement": "inhibitory activity against CDKs 4 and 6", "setting": "[1]", "value": "no inhibitory activity"}, {"measurement": "selectivity for a specific CDK", "setting": "[1]", "value": "greater selectivity for CDKs 1, 2 and 5"}]}
{"compound": "CC[C@H](CO)Nc1nc(NCc2ccccc2)c2ncn(C(C)C)c2n1", "note": "[roscovitine]", "values": [{"measurement": "inhibitory activity against CDKs 4 and 6", "setting": "[1]", "value": "no inhibitory activity"}, {"measurement": "selectivity for a specific CDK", "setting": "[1]", "value": "greater selectivity for CDKs 1, 2 and 5"}]}
{"compound": "CN1CC[C@H](c2c(O)cc(O)c3c(=O)cc(-c4ccccc4Cl)oc23)[C@H](O)C1", "note": "[Flavopiridol]", "values": [{"measurement": "selectivity for a specific CDK", "setting": "[1]", "value": "not particularly selective for a specific CDK"}]}
